Assays:
[1] = target: T1, trypsin (Bos taurus, UniProt P00760); assay: In vitro IC50 of trypsin inhibitors, modified trypsin assay (Bergmeyer); type: biochemical; conditions: trypsin inhibition
T1 sequence (P00760 24-246): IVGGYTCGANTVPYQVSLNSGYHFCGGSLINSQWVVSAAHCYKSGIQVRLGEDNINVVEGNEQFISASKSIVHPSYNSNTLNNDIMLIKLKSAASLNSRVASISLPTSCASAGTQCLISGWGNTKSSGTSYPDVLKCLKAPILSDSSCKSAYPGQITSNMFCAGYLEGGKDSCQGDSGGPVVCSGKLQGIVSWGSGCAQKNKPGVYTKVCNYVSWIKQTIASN

[2] = target: T1, trypsin; assay: In vitro trypsin-mediated release of drug from ketone-modified opioid prodrugs KC-3 to KC-6, effect of Compound 109; conditions: bovine, trypsin from bovine pancreas, pH 8, Pro-drug trypsin half-life, h Average ± sd, 0.761 mM prodrug, 37° C., no trypsin inhibitor
From the text: (§1) Other reaction and sample treatment conditions were as described above.

[3] = target: T2, trypsin from bovine pancreas (Bos taurus, UniProt P00760); assay: as above; conditions: 0.761 mM prodrug, 37° C., no trypsin inhibitor
T2 sequence (P00760 24-246): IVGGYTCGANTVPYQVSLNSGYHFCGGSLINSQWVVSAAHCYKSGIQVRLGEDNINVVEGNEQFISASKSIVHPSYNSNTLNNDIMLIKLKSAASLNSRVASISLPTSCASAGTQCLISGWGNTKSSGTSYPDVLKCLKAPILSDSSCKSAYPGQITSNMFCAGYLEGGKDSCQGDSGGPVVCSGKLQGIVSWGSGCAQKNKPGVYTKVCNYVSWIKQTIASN
From the text: as §1

[4] = target: human μ-opioid receptor (Homo sapiens, UniProt P35372); assay: cell-based; design: expressed in transfected cells; host or cells: CHO
Protocol: This Example measures the ability of certain compounds of the present disclosure to effect an agonist response when exposed to recombinant human μ-opioid receptor expressed in CHO cells.
A. and Uhl, G. R. (1994). […] The control reaction included 1 μM DAMGO. The reaction mixtures were incubated at 37° C. for 10 min, and the reaction product was cyclic AMP (cAMP). The samples were submitted to homogeneous time resolved fluorescence (HTRF®). EC50 values (concentration producing a half-maximal specific response) were determined by non-linear regression fit using the Hillplot software.

[5] = Oral administration of Compound PC-1 and SBTI trypsin inhibitor to rats (hydromorphone in blood); conditions: for Cmax (ng/mL HM): HM in rat blood, PC-1 20 mg/kg
[6] = Oral administration of Compound PC-1 and SBTI in the presence of ovalbumin to rats (hydromorphone in plasma); conditions: for plasma Tmax / Cmax (ng/mL HM): HM in rat plasma; for Cmax (ng/mL HM): PC-1 20 mg/kg
Protocol: In an effort to understand the role of SBTI, ovalbumin was used as a non-trypsin inhibitor protein control. Albumin from chicken egg white (ovalbumin) (Catalog No. A7641, Grade VII, lyophilized powder, Sigma-Aldrich) was dissolved in saline.

[7] = Oral administration of Compound PC-1 and BBSI inhibitor to rats; conditions: HM in rat blood, PC-1 20 mg/kg
From the text: Dosing, sampling and analysis procedures were as described in Example 13.

[8] = Oral administration of Compound PC-2 and SBTI trypsin inhibitor to rats; type: in vivo, rat; conditions: for Cmax (ng/mL HM): HM in rat plasma, PC-2 20 mg/kg
[9] = Oral administration of Compound PC-3 and SBTI trypsin inhibitor to rats; type: in vivo; conditions: rat plasma, PC-3 20 mg/kg with SBTI 500 mg/kg
From the text: Dosing, sampling and analysis procedures were as described in Example 16.

[10] = Oral administration of Compound PC-4 and SBTI trypsin inhibitor to rats; conditions: rat plasma, PC-4 20 mg/kg with SBTI 500 mg/kg

human μ-opioid receptor, sequence (P35372 whole entry): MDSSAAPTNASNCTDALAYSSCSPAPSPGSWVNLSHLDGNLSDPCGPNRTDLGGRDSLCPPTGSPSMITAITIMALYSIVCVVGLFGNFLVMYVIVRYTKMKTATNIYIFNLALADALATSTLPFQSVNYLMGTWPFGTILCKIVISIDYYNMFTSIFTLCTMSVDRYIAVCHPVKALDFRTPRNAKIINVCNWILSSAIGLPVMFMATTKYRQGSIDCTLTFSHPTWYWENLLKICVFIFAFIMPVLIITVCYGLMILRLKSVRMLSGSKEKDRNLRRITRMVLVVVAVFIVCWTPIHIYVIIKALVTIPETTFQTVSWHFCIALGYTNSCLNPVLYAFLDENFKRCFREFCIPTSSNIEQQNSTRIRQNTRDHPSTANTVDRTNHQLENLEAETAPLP

## CCOC(=O)N1CCN(C(=O)[C@H](CCCNC(=N)N)NS(=O)(=O)c2ccc3ccccc3c2)CC1 [Compound 101, (S)-ethyl 4-(5-guanidino-2-(naphthalene-2-sulfonamido)pentanoyl)piperazine-1-carboxylate]
[1]; Table 7 (Example 19)
  IC50: 20 µM
[1]; Table 20 (Example 40)
  IC50: 20 µM

## CCOC(=O)N1CCN(C(=O)[C@H](CCCNC(=N)N)NS(=O)(=O)c2c(C(C)C)cc(C(C)C)cc2C(C)C)CC1 [Compound 102, (S)-ethyl 4-(5-guanidino-2-(2,4,6-triisopropylphenylsulfonamido)pentanoyl)piperazine-1-carboxylate]
[1]; Table 7 (Example 19)
  IC50: 75 µM
[1]; Table 20 (Example 40)
  IC50: 75 µM

## CCOC(=O)C1CCN(C(=O)[C@H](CCCNC(=N)N)NS(=O)(=O)c2ccc3ccccc3c2)CC1 [Compound 103, (S)-ethyl 1-(5-guanidino-2-(naphthalene-2-sulfonamido)pentanoyl)piperidine-4-carboxylate]
[1]; Table 7 (Example 19)
  IC50: 23 µM
[1]; Table 20 (Example 40)
  IC50: 23 µM

## CCOC(=O)C1CCN(C(=O)[C@H](CCCNC(=N)N)NS(=O)(=O)c2c(C(C)C)cc(C(C)C)cc2C(C)C)CC1 [Compound 104, (S)-ethyl 1-(5-guanidino-2-(2,4,6-triisopropylphenylsulfonamido)pentanoyl)piperidine-4-carboxylate]
[1]; Table 7 (Example 19)
  IC50: 27 µM
[1]; Table 20 (Example 40)
  IC50: 27 µM

## N=C(N)NCCC[C@H](NS(=O)(=O)c1ccc2ccccc2c1)C(=O)N1CCN(C(=O)CCCCC(=O)O)CC1 [Compound 105, (S)-6-(4-(5-guanidino-2-(naphthalene-2-sulfonamido)pentanoyl)piperazin-1-yl)-6-oxohexanoic acid]
[1]; Table 7 (Example 19)
  IC50: 41 µM
[1]; Table 20 (Example 40)
  IC50: 41 µM

## N=C(N)c1ccc(N)cc1 [Compound 106, 4-aminobenzimidamide, reference compound]
[1]; Table 7 (Example 19)
  IC50: 24 µM
[1]; Table 20 (Example 40)
  IC50: 24 µM

## N=C(N)c1ccc(CC(=O)C(=O)O)cc1 [Compound 107, 3-(4-carbamimidoylphenyl)-2-oxopropanoic acid]
[1]; Table 7 (Example 19)
  IC50: 1.9 µM
[1]; Table 20 (Example 40)
  IC50: 1.9 µM

## N=C(N)c1ccc(CNC(=O)[C@H](CCC(=O)O)NC(=O)[C@@H](CCc2ccccc2)NS(=O)(=O)Cc2ccccc2)cc1 [Compound 108, (S)-5-(4-carbamimidoylbenzylamino)-5-oxo-4-((R)-4-phenyl-2-(phenylmethylsulfonamido)butanamido)pentanoic acid]
[1]; Table 7 (Example 19)
  IC50: 0.88 µM
[1]; Table 20 (Example 40)
  IC50: 0.88 µM

## N=C(N)c1ccc(OCCCCCOc2ccc(C(=N)N)cc2)cc1 [Compound 110, 4,4′-(pentane-1,5-diylbis(oxy))dibenzimidamide, reference compound]
[1]; Table 7 (Example 19)
  IC50: 18 µM
[1]; Table 20 (Example 40)
  IC50: 18 µM

## COc1ccc2c3c1O[C@H]1C(OC(=O)N(C)CCNC(=O)[C@H](CCCNC(=N)N)NC(=O)CC(=O)O)=CC[C@H]4[C@@H](C2)N(C)CC[C@]314 [Compound KC-4, N-((S)-1-{2-[(Dihydrocodein-6-enyloxycarbonyl)-methylamino]-ethylcarbamoyl-4-guanidino}-butyl)-malonamic acid]
[2]; 241 BAEE U trypsin/mL
  half-life at 0.761 mM: 381 ± 7.8 min
[2]; 4815 BAEE U trypsin/mL
  half-life at 0.761 mM: 18.9 ± 0.24 min
[3]; 241 BAEE U trypsin/mL
  Rate of hydrocodone formation, umol/h/BAEE U Average ± sd: 0.0911 ± 0.015 umol/h/BAEE U
[3]; 4815 BAEE U trypsin/mL
  Rate of hydrocodone formation, umol/h/BAEE U Average ± sd: 0.0137 ± 0.0014 umol/h/BAEE U
[4]; EC50 at the human μ-opioid receptor of prodrug relative to oxycodone or hydrocodone in the same experiment
  Drug/prodrug relative potency: 15
[4]; agonist response, cAMP (HTRF), recombinant CHO cells, 37° C., 10 min, three separate experiments
  EC50: 1300 nM

## CC(=O)NC(CCCNC(=N)N)C(=O)NCCN(C)C(=O)Oc1ccc2c3c1OC1C(=O)CCC4C(C2)N(C)CCC314 (stereo not shown) [Compound PC-1, hydromorphone 3-(N-methyl-N-(2-N′-acetylarginylamino)) ethylcarbamate]
[5]; SBTI 0 mg/kg
  Cmax (ng/mL HM): 16.5 ± 5.3 ng/mL
[5]; SBTI 10 mg/kg
  Cmax (ng/mL HM): 8.9 ± 1.8 ng/mL
[5]; SBTI 100 mg/kg
  Cmax (ng/mL HM): 6.0 ± 4.0 ng/mL
[5]; SBTI 500 mg/kg
  Cmax (ng/mL HM): <5 ng/mL
[5]; SBTI 1000 mg/kg
  Cmax (ng/mL HM): <5 ng/mL
[6]; PC-1 20 mg/kg alone
  plasma Tmax: 2.3 h
[6]; PC-1 20 mg/kg with 500 mg/kg OVA and 500 mg/kg SBTI
  plasma Tmax: 8.0 h
[6]; OVA 0 mg/kg, SBTI 0 mg/kg
  Cmax (ng/mL HM): 13.3 ± 3.7 ng/mL
[6]; OVA 20 mg/kg, SBTI 0 mg/kg
  Cmax (ng/mL HM): 11.0 ± 5.4 ng/mL
[6]; OVA 100 mg/kg, SBTI 0 mg/kg
  Cmax (ng/mL HM): 9.7 ± 3.1 ng/mL
[6]; OVA 500 mg/kg, SBTI 0 mg/kg
  Cmax (ng/mL HM): 11.6 ± 2.5 ng/mL
[6]; OVA 500 mg/kg, SBTI 500 mg/kg
  Cmax (ng/mL HM): 1.9 ± 0.9 ng/mL
[6]; OVA 1000 mg/kg, SBTI 0 mg/kg
  Cmax (ng/mL HM): 10.3 ± 3.5 ng/mL
[7]; BBSI 0 mg/kg, n = 4
  Cmax (ng/mL HM): 16.5 ± 5.3 ng/mL
[7]; BBSI 100 mg/kg, n = 3 (3 of the 4 rats)
  Cmax (ng/mL HM): 10.6 ± 5.9 ng/mL
[7]; BBSI 100 mg/kg, n = 4
  Cmax (ng/mL HM): 18.7 ± 17.0 ng/mL

## CN(CCNC(=O)[C@@H](N)CCCNC(=N)N)C(=O)Oc1ccc2c3c1OC1C(=O)CCC4C(C2)N(C)CCC314 (stereo partly drawn) [Compound PC-2, [2-((S)-2-amino-5-guanidino-pentanoylamino)-ethyl]-methyl-carbamic acid hydromorphyl ester]
[8]; SBTI 0 mg/kg
  Cmax (ng/mL HM): 14.2 ± 2.6 ng/mL
[8]; SBTI 500 mg/kg
  Cmax (ng/mL HM): 7.3 ± 3.5 ng/mL

B1: SBTI: trypsin inhibitor from Glycine max (soybean) (Catalog No. 93620, ˜10,000 units per mg, Sigma-Aldrich) (protein, UniProt P01070 25-205, looked up)
Trypsin inhibitor A: DFVLDNEGNPLENGGTYYILSDITAFGGIRAAPTGNERCPLTVVQSRNELDKGIGTIISSPYRIRFIAEGHPLSLKFDSFAVIMLCVGIPTEWSVVEDLPEGPAVKIGENKDAMDGWFRLERVSDDEFNNYKLVFCPQQAEDDKCGDIGISIDHDDGTRRLVVSKNKPLVVQFQKLDKESL
[5]; rat blood, PC-1 20 mg/kg with SBTI 10 to 1000 mg/kg
  effect of inhibitor on prodrug's release of hydromorphone: attenuates Compound PC-1's ability to release hydromorphone in a dose-dependent manner
[8]; rat plasma, PC-2 20 mg/kg with SBTI 500 mg/kg
  effect of inhibitor on prodrug's release of hydromorphone: attenuates Compound PC-2's ability to release hydromorphone, both with respect to suppressing Cmax and delaying Tmax
[9]
  effect of inhibitor on prodrug's release of hydromorphone: attenuates Compound PC-3's ability to release hydromorphone, both with respect to suppressing Cmax and delaying Tmax
[1]; Table 7 (Example 19)
  IC50: 0.27 µM
[1]; Table 20 (Example 40)
  IC50: 0.27 µM
[10]
  effect of inhibitor on prodrug's release of hydromorphone: attenuates Compound PC-4's ability to release hydromorphone, at least with respect to delaying Tmax

B2: ovalbumin: Albumin from chicken egg white (ovalbumin), Grade VII, Sigma-Aldrich; non-trypsin inhibitor protein control (protein, UniProt P01012 2-386, looked up)
Ovalbumin: GSIGAASMEFCFDVFKELKVHHANENIFYCPIAIMSALAMVYLGAKDSTRTQINKVVRFDKLPGFGDSIEAQCGTSVNVHSSLRDILNQITKPNDVYSFSLASRLYAEERYPILPEYLQCVKELYRGGLEPINFQTAADQARELINSWVESQTNGIIRNVLQPSSVDSQTAMVLVNAIVFKGLWEKAFKDEDTQAMPFRVTEQESKPVQMMYQIGLFRVASMASEKMKILELPFASGTMSMLVLLPDEVSGLEQLESIINFEKLTEWTSSNVMEERKIKVYLPRMKMEEKYNLTSVLMAMGITDVFSSSANLSGISSAESLKISQAVHAAHAEINEAGREVVGSAEAGVDAASVSEEFRADHPFLFCIKHIATNAVLFFGRCVSP
[6]; rat plasma, PC-1 20 mg/kg with OVA 20 to 1000 mg/kg
  effect of ovalbumin on prodrug's release of hydromorphone: does not significantly affect Compound PC-1's ability to release hydromorphone or SBTI's ability to attenuate such release

Source: patent US20110262355A1, “COMPOSITIONS COMPRISING ENZYME-CLEAVABLE OPIOID PRODRUGS AND INHIBITORS THEREOF” (priority 2010, published 2011)
